Measured values: patent publication US8921363B2, “Derivatives of 1 H-isoindol-3-amine, 1 H-iso-aza-indol-3amine, 3,4-dihydroisoquinolin-1-amine, and 1,4-dihydroisoquinolin-3-amine as beta-secretase inhibitors” (Amgen Inc., priority 2010, dated 2014)
pIC50: −log10 of the molar value.

Tests used:
[1] = system: Aβ40 in conditioned medium of cells expressing amyloid precursor protein; assay: In vitro BACE cell-based assay (HEK cell assay, Aβ40 sandwich ELISA); details: Homo sapiens, HEK293; average IC50; Aβ40 after 24 h incubation
BACE1 = BACE1 (Homo sapiens, UniProt P56817); assay: In vitro enzymatic BACE FRET assay; type: biochemical
Sequence of BACE1 (P56817 46-501): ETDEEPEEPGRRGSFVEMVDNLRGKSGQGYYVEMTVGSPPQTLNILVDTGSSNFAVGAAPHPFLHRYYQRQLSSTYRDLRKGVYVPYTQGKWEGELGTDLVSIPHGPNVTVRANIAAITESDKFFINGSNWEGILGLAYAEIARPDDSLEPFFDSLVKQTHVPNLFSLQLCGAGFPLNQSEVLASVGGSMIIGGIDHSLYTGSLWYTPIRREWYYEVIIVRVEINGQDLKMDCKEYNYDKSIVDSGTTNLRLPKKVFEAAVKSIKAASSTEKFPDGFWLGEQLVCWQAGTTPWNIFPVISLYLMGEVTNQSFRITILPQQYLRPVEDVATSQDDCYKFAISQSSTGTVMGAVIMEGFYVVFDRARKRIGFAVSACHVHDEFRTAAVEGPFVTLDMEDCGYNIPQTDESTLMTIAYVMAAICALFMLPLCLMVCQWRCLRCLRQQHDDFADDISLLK
Method: In Vitro Enzymatic BACE FRET (fluorescence resonance energy transfer) Assay (Enzyme Assay data in the Example Table I)
The assay buffer used in this screen is 0.05 M acetate, pH 4.2, 10% DMSO final, 100 uM genapol (which is a nonionic detergent, below its Critical Micelle Concentration). […] This assay is effectively started by the addition of FRET substrate (50 nM) and the combination is incubated for one hour. The FRET assay is terminated with by addition of Tris buffer, which raises the pH to neutrality, and the fluorescence is determined. The FRET substrate is a peptide with commercially available fluorophore and quencher, on opposite sides of the BACE cleavage site. Proteolytic cleavage of the FRET substrate releases quenching of fluorescence (excitation […] and […]).

amyloid beta peptide = assay: In vivo inhibition of beta-secretase (CSF and brain abeta reduction); details: rat, PD dose of 10 mg/kg, after 4 hrs
Excerpt: Several animal models, including mouse, rat, dog, and monkey, may be used to screen for inhibition of beta-secretase activity in vivo following administration of a test compound sample. Animals used in this invention can be wild type, transgenic, or gene knockout animals. For example, the Tg2576 mouse model, prepared and conducted as described in Hsiao et al., 1996, Science 274, 99-102, and other non-transgenic or gene knockout animals are useful to analyze in vivo inhibition of Amyloid beta peptide (Abeta) production in the presence of inhibitory test compounds. Generally, 2 to 18 month old Tg2576 mice, gene knockout mice or non-transgenic animals are administered test compounds formulated in vehicles, such as cyclodextran, phosphate buffers, hydroxypropyl methylcellulose or other suitable vehicles. One to twenty-four hours following the administration of compound, animals are sacrificed, and brains as well as cerebrospinal fluid (CSF) and plasma are removed for analysis of A-beta levels and drug or test compound concentrations (Dovey et al., 2001, Journal of Neurochemistry, 76,173-181) Beginning at time 0, animals are administered by oral gavage, or other means of delivery such as intravenous injection, an inhibitory test compound of up to 100 mg/kg in a standard, conventional formulation, such as 2% hydroxypropyl methylcellulose, 1% Tween80. A separate group of animals receive 2% hydroxypropyl methylcellulose, 1% Tween80 alone, containing no test compound, and serve as a vehicle-control group. At the end of the test period, animals are sacrificed and brain tissues, plasma or cerebrospinal fluid are collected. Brains are either homogenized in 10 volumes (w/v) of 0.2% diethylamine (DEA) in 50 mM NaCl (Best et al., 2005, Journal of Pharmacology and Experimental Therapeutics, 313, 902-908), or in 10 volumes of 0.5% TritonX-100 in Tris-buffered saline (pH at about 7.6). Homogenates are centrifuged at 355,000 g, 4° C. for 30 minutes. CSF or brain supernatants are then analyzed for the presence of A-beta peptide by specific sandwich ELISA assays based on ECL (Electrochemiluminescence) technology. For example, rat Abeta40 is measured using biotinylated-4G8 (Signet) as a capture antibody and Fab40 (an in-house antibody specific to the C-terminal of Abeta40) as a detection antibody. For example, 4 hours after administration of 30 mg/kg oral dose of the test compound in 2% hydroxypropyl methylcellulose, 1% Tween80 (pH2.2) to 200 g male Sprague Dawley rats, amyloid beta peptide levels are measured for reduction by X % and Y % in cerebrospinal fluid and brain, respectively, when compared to the levels measured in the vehicle-treated or control mice.
Actual vehicles used: Oral: 2% HPMC, 1% Tween80, pH 2.2 […]

Row | Compound | pIC50 [1] | pIC50 (BACE1) | CSF abeta reduction (amyloid beta peptide) [%] | brain abeta reduction (amyloid beta peptide) [%]
1 | NC1=N[C@]2(c3cc(-c4cccnc4F)ccc3Oc3c2cc(C2=CCCOC2)nc3F)c2ccccc21 (single isomer, unassigned) [Example 7-B] | 8.30 | 9.30 | 7 | 10
2 | NC1=N[C@]2(c3cc(-c4cccnc4F)ccc3Oc3c2cc(Cl)nc3F)c2cccnc21 [Example 17d-2, (S)-3-chloro-1-fluoro-7-(2-fluoropyridin-3-yl)spiro[chromeno[2,3-c]pyridine-5,5′-pyrrolo[3,4-b]pyridin]-7′-amine] | 5.80 | 7.80 | – | –
3 | NC1=N[C@]2(c3cc(-c4cccnc4F)ccc3Oc3c2cc(-c2ccnc(F)c2)nc3F)c2cccnc21 [Example 17e, (S)-1-fluoro-7-(2-fluoropyridin-3-yl)-3-(2-fluoropyridin-4-yl)spiro[chromeno[2,3-c]pyridine-5,5′-pyrrolo[3,4-b]pyridin]-7′-amine] | 8.15 | 9.15 | 41 | 28
4 | NC1=NC2(c3ccccc3O1)c1cc(-c3cncnc3)ccc1Oc1cnc(-c3ccnc(F)c3)cc12 (stereo not shown) [Example 20, 3′-(2-fluoropyridin-4-yl)-7′-(pyrimidin-5-yl)spiro[benzo[c][1,3]oxazine-4,5-chromeno[2,3-c]pyridin]-2-amine] | 6.97 | 8.57 | – | –
5 | NC1=NC2(c3cc(-c4cccnc4F)ccc3Oc3cnc(-c4ccnc(F)c4)cc32)c2ncccc2O1 (stereo not shown) [Example 22, 7-(2-fluoropyridin-3-yl)-3-(2-fluoropyridin-4-yl)spiro[chromeno[2,3-c]pyridine-5,4′-pyrido[2,3-e][1,3]oxazin]-2′-amine] | 6.09 | 8.00 | – | –
6 | NC1=NC2(c3ccccc3O1)c1cc(-c3cccnc3)ccc1Oc1cnc(-c3ccnc(F)c3)cc12 (stereo not shown) [Example 23, 3′-(2-fluoropyridin-4-yl)-7′-(pyridin-3-yl)spiro[benzo[e][1,3]oxazine-4,5′-chromeno[2,3-c]pyridin]-2-amine] | 7.01 | 8.54 | – | –
